Data reported in patent publication US20070129411A1, “Treatment of proliferative diseases with epothilone derivatives and radiation” (priority 2003, published 2007).
Entries after “also recorded” stand apart in the source; their conditions may differ.

Key:
[1] = system: E1A/ras transformed p53-/- MEF; assay type: cell-based, murine; settings: for proliferative activity, drug alone / proliferative activity, drug in combination with ionizing radiation: murine fibrosarcoma cell line, low nanomolar range, comparable extent for both drugs
Experimental: (§1) Tumor cell proliferation was assessed by the calorimetric MTT-like alamarBlue assay that is based on detection of metabolite activity. To determine clonogenic survival the number of singular cells plated was adjusted to obtain about 100 colonies per dish with a given treatment. After 24 h exposure to the different drugs cells were irradiated and then allowed to grow for 8 to 10 days before fixation In methanol/acetic acid (75%/25%) and staining with crystal violet. Only colonies with more than 50 cells/colony were counted. The plating efficiency (PE) of untreated cells was determined and calculated as PE (%)=(scored colonies/number of plated cells)×100. The surviving fraction (SF) with a given treatment was determined by SF=(scored colonies)/(number of plated cells×PE/100). […] Irradiation of cell cultures was carried out at RT in tissue culture dishes (100×100 mm) or in 96-well plates using a Pantak Therapax […] X-ray unit at 0.7 Gy/min. Dosimetry was controlled with a Vigilant-dosimeter.
(§2) Initial proliferation assays were performed to determine the dose range of epothilone B to be applied for combined treatment with ionizing radiation. […] For this combined treatment modality cells were pretreated for 24 h with epothilone B prior to irradiation.

[2] = system: human colon adenocarcinoma cell line SW480; assay: alamarBlue tumor cell proliferation assay, SW480; assay type: cell-based
Experimental: as §1, §2

SW480 = assay: clonogenic survival assay, SW480; assay type: cell-based, human
Experimental: (§3) Tumor cell proliferation was assessed by the calorimetric MTT-like alamarBlue assay that is based on detection of metabolite activity. To determine clonogenic survival the number of singular cells plated was adjusted to obtain about 100 colonies per dish with a given treatment. After 24 h exposure to the different drugs cells were irradiated and then allowed to grow for 8 to 10 days before fixation In methanol/acetic acid (75%/25%) and staining with crystal violet. Only colonies with more than 50 cells/colony were counted. The plating efficiency (PE) of untreated cells was determined and calculated as PE (%)=(scored colonies/number of plated cells)×100. The surviving fraction (SF) with a given treatment was determined by SF=(scored colonies)/(number of plated cells×PE/100). Clonogenic assays were performed at least twice and absence of error bars is due to minimal standard deviations. Irradiation of cell cultures was carried out at RT in tissue culture dishes (100×100 mm) or in 96-well plates using a Pantak Therapax […] X-ray unit at 0.7 Gy/min. Dosimetry was controlled with a Vigilant-dosimeter.
(§4) The clonogenic assay is based on the outgrowth of compact clones from singular cells that are seeded at low density in a petri dish. Clonal outgrowth under the different treatment conditions can be quantified and compared.

E1A/ras-transformed MEFs = assay: clonogenic survival assay, E1A/ras-transformed MEF; assay type: cell-based, murine; settings: 24 h drug exposure then irradiation
Experimental: as §3, §4

For CC(=O)O[C@H]1C(=O)[C@@]2(C)[C@H]([C@H](OC(=O)c3ccccc3)[C@]3(O)C[C@H](OC(=O)[C@H](O)[C@@H](NC(=O)c4ccccc4)c4ccccc4)C(C)=C1C3(C)C)[C@]1(OC(C)=O)CO[C@@H]1C[C@@H]2O [Paclitaxel, reference compound], the “proliferative activity, drug alone” value [1] was “reduced the proliferative activity”, the “proliferative activity, drug in combination with ionizing radiation” value [1] was “reduced the proliferative activity” and the “proliferation, response to drug” value ([2]; SW480, doses up to 500 nM) was “refractory”. The “clonogenic survival, combined treatment with ionizing radiation” value (“clonogenic survival, combined treatment” below) (SW480; Paclitaxel-resistant SW480, only at very high concentrations of Paclitaxel) was “at least additive effect” and the “clonogenic survival, combined treatment” value (E1A/ras-transformed MEFs) was “at least additive effect”.
With C/C(=C\c1csc(C)n1)[C@@H]1C[C@@H]2O[C@]2(C)CCC[C@H](C)[C@H](O)[C@@H](C)C(=O)C(C)(C)[C@@H](O)CC(=O)O1 [epothilone B] the “antiproliferative effect of combined treatment with ionizing radiation” value ([1]; E1A/ras transformed p53-/- MEF, ionizing radiation 5Gy, 24 h drug pretreatment prior to irradiation) was “at least additive antiproliferative effect”, the “antiproliferative dose response, drug alone” value ([1]; E1A/ras transformed p53-/- MEF, over 72 hours, without irradiation) was “subnanomolar and low nanomolar range” and the “proliferative activity, drug alone” value [1] was “reduced the proliferative activity”. For the same compound, the “proliferative activity, drug in combination with ionizing radiation” value [1] was “reduced the proliferative activity”, the “antiproliferative effect of combined treatment with ionizing radiation” value ([2]; SW480, ionizing radiation 5Gy, 24 h drug pretreatment prior to irradiation) was “at least additive antiproliferative effect; also recorded: retains full activity” and the “antiproliferative dose response, drug alone” value ([2]; SW480, over 72 hours, without irradiation) was “subnanomolar and low nanomolar range; also recorded: enhanced sensitivity; also recorded: retains full activity”. For the same compound, the “clonogenic survival, combined treatment” value (SW480; SW480, 24 h drug exposure then irradiation) was “at least additive effect”, the “clonogenic survival, sensitivity of SW480 relative to MEFs” value (SW480; SW480 compared with E1A/ras-transformed MEFs) was “more sensitive” and the “clonogenic survival, combined treatment” value (E1A/ras-transformed MEFs) was “at least additive effect”.
